Tested on: 292921-168-R-J2-PDC complex spheroid growth
Test: Anticancer human tumor 292921-168-R-J2-PDC patient-derived pancreatic carcinoma cell line growth inhibition [AhR]
Conditions: for IC50: curve of first compound; for viability, T/C: stronger effect = lower value
In short: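 Spheroids combined tumor cells with HUVEC endothelial cells and human MSCs as stroma. AhR antagonists were paired with standard or investigational drugs, each dosed in half-log steps down from near clinical Cmax, or from 10 microM where Cmax was unknown.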

[1] = second compound 0.1 µM, first compound 0.0316 µM
[2] = second compound 0.1 µM, first compound 0.1 µM
[3] = second compound 0.1 µM, first compound 0.316 µM
[4] = second compound 0.1 µM, first compound 1 µM
[5] = second compound 0.316 µM, first compound 0.0316 µM
[6] = second compound 0.316 µM, first compound 0.1 µM
[7] = second compound 0.316 µM, first compound 0.316 µM
[8] = second compound 0.316 µM, first compound 1 µM
[9] = second compound 1 µM, first compound 0.0316 µM
[10] = second compound 1 µM, first compound 0.1 µM
[11] = second compound 1 µM, first compound 0.316 µM
[12] = second compound 1 µM, first compound 1 µM
[13] = second compound 3.16 µM, first compound 0.0316 µM
[14] = second compound 3.16 µM, first compound 0.1 µM
[15] = second compound 3.16 µM, first compound 0.316 µM
[16] = second compound 3.16 µM, first compound 1 µM
[17] = second compound 10 µM, first compound 0.0316 µM
[18] = second compound 10 µM, first compound 0.1 µM
[19] = second compound 10 µM, first compound 0.316 µM
[20] = second compound 10 µM, first compound 1 µM
[21] = second compound 0.1 µM, first compound 3.16 µM
[22] = second compound 0.1 µM, first compound 10 µM
[23] = second compound 0.316 µM, first compound 3.16 µM
[24] = second compound 0.316 µM, first compound 10 µM
[25] = second compound 1 µM, first compound 3.16 µM
[26] = second compound 1 µM, first compound 10 µM
[27] = second compound 3.16 µM, first compound 3.16 µM
[28] = second compound 3.16 µM, first compound 10 µM
[29] = second compound 10 µM, first compound 3.16 µM
[30] = second compound 10 µM, first compound 10 µM
[31] = second compound 0.1 µM, first compound 0.00949 µM
[32] = second compound 0.1 µM, first compound 0.03 µM
[33] = second compound 0.1 µM, first compound 0.0949 µM
[34] = second compound 0.1 µM, first compound 0.3 µM
[35] = second compound 0.316 µM, first compound 0.00949 µM
[36] = second compound 0.316 µM, first compound 0.03 µM
[37] = second compound 0.316 µM, first compound 0.0949 µM
[38] = second compound 0.316 µM, first compound 0.3 µM
[39] = second compound 1 µM, first compound 0.00949 µM
[40] = second compound 1 µM, first compound 0.03 µM
[41] = second compound 1 µM, first compound 0.0949 µM
[42] = second compound 1 µM, first compound 0.3 µM
[43] = second compound 3.16 µM, first compound 0.00949 µM
[44] = second compound 3.16 µM, first compound 0.03 µM
[45] = second compound 3.16 µM, first compound 0.0949 µM
[46] = second compound 3.16 µM, first compound 0.3 µM
[47] = second compound 10 µM, first compound 0.00949 µM
[48] = second compound 10 µM, first compound 0.03 µM
[49] = second compound 10 µM, first compound 0.0949 µM
[50] = second compound 10 µM, first compound 0.3 µM
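Also: spheroids exposed to compounds for seven days after three days of growth.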

## CC1COCCN1c1cc(-c2ccnn2C)c2ccnc(-c3ccn[nH]3)c2n1 (stereo not given) + Cc1cncc(-c2nc(NCCc3c[nH]c4ccccc34)c3ncn(C(C)C)c3n2)c1
Second compound 0.1 µM
  IC50: 48 nM
Second compound 0.316 µM
  IC50: 43.4 nM
Second compound 1 µM
  IC50: 40.8 nM
Second compound 3.16 µM
  IC50: 32.1 nM
Second compound 10 µM
  IC50: < 3.16 nM
Second compound 0.1 µM, first compound 0.00316 µM
  viability, T/C: 87.5%
Second compound 0.1 µM, first compound 0.01 µM
  viability, T/C: 82.6%
[1]
  viability, T/C: 60%
[2]
  viability, T/C: 31.8%
[3]
  viability, T/C: 22.5%
[4]
  viability, T/C: 18.1%
Second compound 0.316 µM, first compound 0.00316 µM
  viability, T/C: 88.3%
Second compound 0.316 µM, first compound 0.01 µM
  viability, T/C: 78.6%
[5]
  viability, T/C: 56.8%
[6]
  viability, T/C: 32.7%
[7]
  viability, T/C: 18.7%
[8]
  viability, T/C: 17%
Second compound 1 µM, first compound 0.00316 µM
  viability, T/C: 74.5%
Second compound 1 µM, first compound 0.01 µM
  viability, T/C: 73%
[9]
  viability, T/C: 55.2%
[10]
  viability, T/C: 30%
[11]
  viability, T/C: 18.7%
[12]
  viability, T/C: 17.1%
Second compound 3.16 µM, first compound 0.00316 µM
  viability, T/C: 60.3%
Second compound 3.16 µM, first compound 0.01 µM
  viability, T/C: 64.1%
[13]
  viability, T/C: 49.7%
[14]
  viability, T/C: 25.4%
[15]
  viability, T/C: 17.9%
[16]
  viability, T/C: 17.9%
Second compound 10 µM, first compound 0.00316 µM
  viability, T/C: 41%
Second compound 10 µM, first compound 0.01 µM
  viability, T/C: 48.1%
[17]
  viability, T/C: 44.9%
[18]
  viability, T/C: 33.2%
[19]
  viability, T/C: 25.8%
[20]
  viability, T/C: 22.2%

## CC1COCCN1c1cc(C2(S(C)(=N)=O)CC2)nc(-c2ccnc3[nH]ccc23)n1 (stereo not given) + Cc1cncc(-c2nc(NCCc3c[nH]c4ccccc34)c3ncn(C(C)C)c3n2)c1
Second compound 0.1 µM
  IC50: 3610 nM
Second compound 0.316 µM
  IC50: 3000 nM
Second compound 1 µM
  IC50: 2580 nM
Second compound 3.16 µM
  IC50: 1940 nM
Second compound 10 µM
  IC50: 31.6 nM
[1]
  viability, T/C: 89.8%
[2]
  viability, T/C: 87.6%
[3]
  viability, T/C: 95.8%
[4]
  viability, T/C: 76.9%
[21]
  viability, T/C: 54.2%
[22]
  viability, T/C: 24.7%
[5]
  viability, T/C: 86.5%
[6]
  viability, T/C: 80.5%
[7]
  viability, T/C: 73.3%
[8]
  viability, T/C: 80.2%
[23]
  viability, T/C: 48.6%
[24]
  viability, T/C: 24.7%
[9]
  viability, T/C: 77.2%
[10]
  viability, T/C: 80.6%
[11]
  viability, T/C: 88.4%
[12]
  viability, T/C: 70%
[25]
  viability, T/C: 45.9%
[26]
  viability, T/C: 24.5%
[13]
  viability, T/C: 63.3%
[14]
  viability, T/C: 63.3%
[15]
  viability, T/C: 66.9%
[16]
  viability, T/C: 59.6%
[27]
  viability, T/C: 42.6%
[28]
  viability, T/C: 25.4%
[17]
  viability, T/C: 48.6%
[18]
  viability, T/C: 45.9%
[19]
  viability, T/C: 50%
[20]
  viability, T/C: 50.4%
[29]
  viability, T/C: 38.8%
[30]
  viability, T/C: 29.4%

## COc1ccc([C@@H](O)c2cc(-c3ncnc4cc(N5CCOCC5)ccc34)c(F)cc2Cl)nn1 + Cc1cncc(-c2nc(NCCc3c[nH]c4ccccc34)c3ncn(C(C)C)c3n2)c1
Second compound 0.1 µM
  IC50: 2030 nM
Second compound 0.316 µM
  IC50: 1630 nM
Second compound 1 µM
  IC50: 1390 nM
Second compound 3.16 µM
  IC50: 607 nM
Second compound 10 µM
  IC50: < 31.6 nM
[1]
  viability, T/C: 81.6%
[2]
  viability, T/C: 85.2%
[3]
  viability, T/C: 68.8%
[4]
  viability, T/C: 67.2%
[21]
  viability, T/C: 39.9%
[22]
  viability, T/C: 25.8%
[5]
  viability, T/C: 80.6%
[6]
  viability, T/C: 78.2%
[7]
  viability, T/C: 81%
[8]
  viability, T/C: 59.7%
[23]
  viability, T/C: 36.3%
[24]
  viability, T/C: 26.2%
[9]
  viability, T/C: 77.7%
[10]
  viability, T/C: 79%
[11]
  viability, T/C: 62.4%
[12]
  viability, T/C: 58.7%
[25]
  viability, T/C: 36.3%
[26]
  viability, T/C: 26%
[13]
  viability, T/C: 67.1%
[14]
  viability, T/C: 58.5%
[15]
  viability, T/C: 63.7%
[16]
  viability, T/C: 40.2%
[27]
  viability, T/C: 32.7%
[28]
  viability, T/C: 23.1%
[17]
  viability, T/C: 42.7%
[18]
  viability, T/C: 39.5%
[19]
  viability, T/C: 42.2%
[20]
  viability, T/C: 32.3%
[29]
  viability, T/C: 25.2%
[30]
  viability, T/C: 20.5%

## Nc1ncn(C2CC(O)C(CO)S2)c(=O)n1 (stereo not given) + Cc1cncc(-c2nc(NCCc3c[nH]c4ccccc34)c3ncn(C(C)C)c3n2)c1
Second compound 0.1 µM
  IC50: > 300 nM
Second compound 0.316 µM
  IC50: > 300 nM
Second compound 1 µM
  IC50: > 300 nM
Second compound 3.16 µM
  IC50: > 300 nM
Second compound 10 µM
  IC50: 91.3 nM
Second compound 0.1 µM, first compound 0.000949 µM
  viability, T/C: 94.8%
Second compound 0.1 µM, first compound 0.003 µM
  viability, T/C: 92.2%
[31]
  viability, T/C: 91.3%
[32]
  viability, T/C: 92.6%
[33]
  viability, T/C: 87%
[34]
  viability, T/C: 89.9%
Second compound 0.316 µM, first compound 0.000949 µM
  viability, T/C: 91%
Second compound 0.316 µM, first compound 0.003 µM
  viability, T/C: 85.9%
[35]
  viability, T/C: 88.2%
[36]
  viability, T/C: 98.2%
[37]
  viability, T/C: 88.2%
[38]
  viability, T/C: 92.7%
Second compound 1 µM, first compound 0.000949 µM
  viability, T/C: 71.9%
Second compound 1 µM, first compound 0.003 µM
  viability, T/C: 74%
[39]
  viability, T/C: 69.7%
[40]
  viability, T/C: 75.1%
[41]
  viability, T/C: 82.4%
[42]
  viability, T/C: 82.9%
Second compound 3.16 µM, first compound 0.000949 µM
  viability, T/C: 52.2%
Second compound 3.16 µM, first compound 0.003 µM
  viability, T/C: 55.5%
[43]
  viability, T/C: 59.5%
[44]
  viability, T/C: 47.3%
[45]
  viability, T/C: 50%
[46]
  viability, T/C: 57.8%
Second compound 10 µM, first compound 0.000949 µM
  viability, T/C: 50.1%
Second compound 10 µM, first compound 0.003 µM
  viability, T/C: 48.8%
[47]
  viability, T/C: 54.6%
[48]
  viability, T/C: 50%
[49]
  viability, T/C: 50.2%
[50]
  viability, T/C: 48.4%

## O=C(C=Cn1cnc(-c2cc(C(F)(F)F)cc(C(F)(F)F)c2)n1)NNc1cnccn1 + Cc1cncc(-c2nc(NCCc3c[nH]c4ccccc34)c3ncn(C(C)C)c3n2)c1
Second compound 0.1 µM
  IC50: 179 nM
Second compound 0.316 µM
  IC50: 165 nM
Second compound 1 µM
  IC50: 194 nM
Second compound 3.16 µM
  IC50: 108 nM
Second compound 10 µM
  IC50: 107 nM
[31]
  viability, T/C: 90.8%
[32]
  viability, T/C: 85.3%
[33]
  viability, T/C: 62.6%
[34]
  viability, T/C: 39.1%
Second compound 0.1 µM, first compound 0.949 µM
  viability, T/C: 23%
Second compound 0.1 µM, first compound 3 µM
  viability, T/C: 15.2%
[35]
  viability, T/C: 91.9%
[36]
  viability, T/C: 86.2%
[37]
  viability, T/C: 62.1%
[38]
  viability, T/C: 36.2%
Second compound 0.316 µM, first compound 0.949 µM
  viability, T/C: 21.2%
Second compound 0.316 µM, first compound 3 µM
  viability, T/C: 16.2%
[39]
  viability, T/C: 91%
[40]
  viability, T/C: 80.2%
[41]
  viability, T/C: 62.4%
[42]
  viability, T/C: 42.5%
Second compound 1 µM, first compound 0.949 µM
  viability, T/C: 24.6%
Second compound 1 µM, first compound 3 µM
  viability, T/C: 13.1%
[43]
  viability, T/C: 83.6%
[44]
  viability, T/C: 71%
[45]
  viability, T/C: 51.5%
[46]
  viability, T/C: 35.2%
Second compound 3.16 µM, first compound 0.949 µM
  viability, T/C: 21.9%
Second compound 3.16 µM, first compound 3 µM
  viability, T/C: 18.9%
[47]
  viability, T/C: 54.4%
[48]
  viability, T/C: 58.1%
[49]
  viability, T/C: 51.2%
[50]
  viability, T/C: 38.7%
Second compound 10 µM, first compound 0.949 µM
  viability, T/C: 35.5%
Second compound 10 µM, first compound 3 µM
  viability, T/C: 29.1%

— PubChem BioAssay AID1918994 (Molecular Pharmacology Branch, DTP, NCI, 2023)
